Measurements from US7649017B2, “Compositions intended for the treatment of peripheral neuropathies, preparation thereof and uses of same” (Universite de la Mediterranee, priority 2002, dated 2010).

Key:
[1] = system: C22 mice; assay: Histologic analysis of sciatic nerve, percentage of myelinated fibers; format: in vivo; conditions: C22 mice treated for three months
Experimental: The sciatic nerve was harvested and the percentage of myelinated fibers was determined by histologic analysis and is given in the figure on the ordinate, together with the results of a non-transgenic control (more than 95% of peripheral nerve fibers are myelinated in adults).
To obtain data on the mechanism of this phenotypic correction, the histologic features of the nerves of treated animals were studied. For this, some of the treated animals were sacrificed and a histologic analysis was performed. The percentage of myelinated nerve fibers increased with treatment (FIG. 3). This percentage was 95% for non-transgenic animals, 20-30% for untreated C22 mice and 70% for treated animals. The treatment therefore reactivated myelination, which was inhibited by overexpression of PMP22.

[2] = system: C22 males (murine CMT model); assay: Rotor-Rod test, double-blind study vitamin C versus placebo in C22 males; format: in vivo, mice; conditions: 1.12 mg once a week by gavage
Experimental: Rotor-Rod test performance was evaluated every month (at 3 months, 4 months and 5 months). The standard deviation is indicated by the darkened section at the top of each column. […] Only males (from two litters) were used, since the degree of severity is sex-specific. […] The fact that only males were included is very important, because it is known that severity varies widely in human patients according to sex, a variability also seen in the animal models used, in which there appears to be a major modifier gene having an impact on myelination. “Genetic background” thus seems to play a significant role in the severity of the phenotype. It was therefore justified to work with individuals from a same litter. […] The animals were then evaluated in the Rotor-Rod test. The study lasted for three months (age of animals: two to five months). The results are illustrated in FIG. 1.

[3] = system: C22 males (murine CMT model); assay: Survival of treated C22 males under continued treatment; format: in vivo, mice; conditions: continued vitamin C treatment; untreated males die before 10 months of age
Excerpt: The results, expressed in seconds, confirm that males were more severely affected (males in this line even have early mortality, since all males die before 10 months of age).
Performance continued to improve, even after taking into account that the animals had aged.

[4] = system: transgenic C22 animals (murine CMT model, human YAC containing the PMP22 gene); assay: Rotor-Rod test, first open trial in transgenic C22 animals; format: in vivo, mice; conditions: treated with vitamin C
Experimental: To better understand the pathophysiology of this disease and to propose therapeutic solutions, a murine disease model was constructed in 1996 by transgenesis of a human YAC containing the PMP22 gene (Huxley et al., Human Molecular Genetics, 1996, Vol. 5, No. 5, 563-569). […] The action of vitamin C was tested in this model. A first “open” trial was carried out, without inclusion criteria, by simply separating males and females so as to rapidly determine whether a phenotypic correction effect could be seen. The Rotor-Rod test, classically used in pharmacology, was chosen as the criterion of muscle strength. […] The results, expressed in seconds, confirm that males were more severely affected (males in this line even have early mortality, since all males die before 10 months of age).

[5] = system: C22 animals (murine CMT model); assay: Bar crossing (posture) test and grip test, third study; format: in vivo, mice
Experimental: FIG. 2: A second series of preclinical tests with the same design as the first series (described in FIG. 1) was carried out. Animals were tested after one month and two months of treatment using the bar crossing test (the longer the animal takes to cross the bar or the more it slips off, the worse the locomotor performance). Animals were also tested in the grip test which measures the traction strength that must be applied for the animal to release the bar (the higher this value the better the performance). To confirm these findings and further investigate the mechanism of phenotypic correction, a third study was carried out. Two tests were used: a posture test (crossing a bar that gets progressively narrower) and a test of muscle strength, the “grip test”. FIG. 2 illustrates the results after two months of treatment. […] This test is a good indicator of muscle strength.

## O=C1O[C@H]([C@@H](O)CO)C(O)=C1O [vitamin C, ascorbic acid]
[1]
  Percentage of myelinated nerve fibers: 70%
[2]; first month
  Rotor-Rod test performance, first month of treatment: not very effective
[2]; from the second month
  Time on the bar (Rotor-Rod test), second month of treatment: ~50 s
[2]; third month
  Rotor-Rod test performance, third month of treatment: further improved
[3]
  Age at which treated males were still alive: still alive at age 24 months
[4]; C22 females
  Seconds on the bar (Rotor-Rod test), treated animals: 45.7 ± 10 s
[4]; C22 males
  Seconds on the bar (Rotor-Rod test), treated animals: 46 ± 14 s
[5]; after one and two months of treatment
  Bar crossing performance: deteriorated at the first month, then improved during the second
[5]; after two months of treatment
  Grip test (muscle strength): improvement was also seen starting from two months of treatment
